Data taken from BindingDB's records for doi:10.7270/Q2GM865X (D3R/Abbott, 2015).
Where “and” joins values, the source holds several entries; their conditions need not be identical. Equal values may be shown once.

What follows are compounds tested against Coagulation factor X (Homo sapiens, UniProt P00742) (assay: D3R245).
Coagulation factor X, sequence (P00742 41-179 limits assumed): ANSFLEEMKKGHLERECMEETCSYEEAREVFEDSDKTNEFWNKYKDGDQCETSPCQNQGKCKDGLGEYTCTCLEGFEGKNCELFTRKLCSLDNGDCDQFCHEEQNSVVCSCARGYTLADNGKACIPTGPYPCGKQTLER
Coagulation factor X, sequence (P00742 235-488 limits assumed): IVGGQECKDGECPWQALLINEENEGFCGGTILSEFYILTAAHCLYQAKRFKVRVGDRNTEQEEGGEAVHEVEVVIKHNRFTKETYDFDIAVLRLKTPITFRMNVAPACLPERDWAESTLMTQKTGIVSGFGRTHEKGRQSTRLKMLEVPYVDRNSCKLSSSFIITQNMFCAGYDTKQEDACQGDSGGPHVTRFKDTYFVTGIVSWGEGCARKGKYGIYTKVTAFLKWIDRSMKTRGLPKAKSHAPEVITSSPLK

Structure (SMILES) | IC50
C[C@@H](C(=O)N1CCOCC1)N1CC[C@H](N(CC#N)S(=O)(=O)c2ccc(-c3ccc(Cl)s3)s2)C1=O [GTC000008A] | 28 nM
COC(=O)CN([C@H]1CCN([C@@H](C)C(=O)N2CCOCC2)C1=O)S(=O)(=O)c1ccc(-c2ccc(Cl)s2)s1 [GTC000009A] | 15.5 nM
CCC(=O)CN([C@H]1CCN([C@@H](C)C(=O)N2CCOCC2)C1=O)S(=O)(=O)c1ccc(-c2ccc(Cl)s2)s1 [GTC000010A] | 17 nM
C[C@@H](C(=O)N1CCOCC1)N1CC[C@H](N(CC#N)S(=O)(=O)/C=C/c2ccc(Cl)cc2)C1=O [GTC000011A] | 87.5 nM
CCC(=O)CN([C@H]1CCN([C@@H](C)C(=O)N2CCOCC2)C1=O)S(=O)(=O)/C=C/c1ccc(Cl)cc1 [GTC000012A] | 60 nM
COC(=O)CN([C@H]1CCN([C@@H](C)C(=O)N2CCOCC2)C1=O)S(=O)(=O)/C=C/c1ccc(Cl)cc1 [GTC000013A] | 60 nM
C[C@@H](C(=O)N1CCOCC1)N1CC[C@H](N(CC(=O)O)S(=O)(=O)c2ccc(-c3ccc(Cl)s3)s2)C1=O [GTC000016A] | 24 nM
C[C@@H](C(=O)N1CCOCC1)N1CC[C@H](N(CC(=O)O)S(=O)(=O)/C=C/c2ccc(Cl)cc2)C1=O [GTC000017A] | 132 nM
C[C@@H](C(=O)N1CCOCC1)N1CC[C@H](N(CC(=O)OC(C)(C)C)S(=O)(=O)c2ccc3cc(Cl)ccc3c2)C1=O [GTC000022A] | 6.5 nM
CCC(=O)CN([C@H]1CCN([C@@H](C)C(=O)N2CCOCC2)C1=O)S(=O)(=O)c1cc2ccc(Cl)cc2s1 [GTC000025A] | 27 nM
C[C@@H](C(=O)N1CCOCC1)N1CC[C@H](N(CC(N)=O)S(=O)(=O)c2cc3ccc(Cl)cc3s2)C1=O [GTC000026A] | 50 nM
CCC(=O)CN([C@H]1CCN([C@@H](C)C(=O)N2CCOCC2)C1=O)S(=O)(=O)c1cc2cc(Cl)ccc2s1 [GTC000027A] | 278 nM
C[C@@H](C(=O)N1CCOCC1)N1CC[C@H](N(CC(N)=O)S(=O)(=O)/C=C/c2ccc(Cl)cc2)C1=O [GTC000030A] | 54 nM
C[C@@H](C(=O)N1CCOCC1)N1CC[C@H](N(CC(N)=O)S(=O)(=O)c2cc3cc(Cl)ccc3s2)C1=O [GTC000031A] | 218 nM
C[C@@H](C(=O)N1CCOCC1)N1CC[C@H](N(CC(N)=O)S(=O)(=O)c2ccc(-c3ccc(Cl)s3)s2)C1=O [GTC000032A] | 14 nM
C[C@@H]1CN(C(=O)[C@H](C)N2CC[C@H](N(CC(N)=O)S(=O)(=O)c3ccc4cc(Cl)ccc4c3)C2=O)C[C@H](C)O1 [GTC000038A] | 26.5 nM
C[C@@H](C(=O)N1C[C@@H]2C[C@H]1CO2)N1CC[C@H](N(CC(N)=O)S(=O)(=O)c2ccc3cc(Cl)ccc3c2)C1=O [GTC000039A] | 97.3 nM
C[C@@H](C(=O)N1CCOCC1)N1CC[C@H](N(CCN2CCOCC2)S(=O)(=O)c2ccc3cc(Cl)ccc3c2)C1=O [GTC000040A] | 8.3 nM
C[C@@H](C(=O)N1CCOCC1)N1CC[C@H](N(CCN2CCCC2)S(=O)(=O)c2ccc3cc(Cl)ccc3c2)C1=O [GTC000043A] | 12 nM
C[C@@H](C(=O)N1CCOCC1)N1CC[C@H](N(C)S(=O)(=O)/C=C/c2ccc(Cl)s2)C1=O [GTC000044A] | 405 nM

Further lines, results first:

IC50 | Structure (SMILES)
10.5 nM | COC(=O)CN([C@H]1CCN([C@@H](C)C(=O)N2CCOCC2)C1=O)S(=O)(=O)c1ccc2cc(Cl)ccc2c1 [GTC000001A]
22.5 nM | C[C@@H](C(=O)N1CCOCC1)N1CC[C@H](N(CC#N)S(=O)(=O)c2ccc3cc(Cl)ccc3c2)C1=O [GTC000003A]
67 nM | C=CCN([C@H]1CCN([C@@H](C)C(=O)N2CCOCC2)C1=O)S(=O)(=O)c1ccc2cc(Cl)ccc2c1 [GTC000004A]
40 nM | C[C@@H](C(=O)N1CCOCC1)N1CC[C@H](N(Cc2ccoc2)S(=O)(=O)c2ccc3cc(Cl)ccc3c2)C1=O [GTC000014A]
26.3 nM | C[C@@H](C(=O)N1CCOCC1)N1CC[C@H](N(Cc2cccnc2)S(=O)(=O)c2ccc3cc(Cl)ccc3c2)C1=O [GTC000015A]
358 nM | CCOC(=O)CN([C@H]1CCN([C@@H](C)C(=O)N2CCOCC2)C1=O)S(=O)(=O)c1ccc2cc(Cl)ccc2c1 [GTC000018A]
68 nM | C[C@@H](C(=O)N1CCOCC1)N1CC[C@H](N(Cc2ccco2)S(=O)(=O)c2ccc3cc(Cl)ccc3c2)C1=O [GTC000019A]
38 nM | C[C@@H](C(=O)N1CCOCC1)N1CC[C@H](N(Cc2nccs2)S(=O)(=O)c2ccc3cc(Cl)ccc3c2)C1=O [GTC000020A]
17 nM | C[C@@H](C(=O)N1CCOCC1)N1CC[C@H](N(CC(=O)C(C)(C)C)S(=O)(=O)c2ccc3cc(Cl)ccc3c2)C1=O [GTC000021A]
54 nM | CCN([C@H]1CCN([C@@H](C)C(=O)N2CCOCC2)C1=O)S(=O)(=O)c1ccc2cc(Cl)ccc2c1 [GTC000023A]
17.5 nM | Cc1nc(CN([C@H]2CCN([C@@H](C)C(=O)N3CCOCC3)C2=O)S(=O)(=O)c2ccc3cc(Cl)ccc3c2)cs1 [GTC000024A]
8 nM and 12 nM | C[C@@H](C(=O)N1CCOCC1)N1CC[C@H](N(Cc2ccccn2)S(=O)(=O)c2ccc3cc(Cl)ccc3c2)C1=O [GTC000028A]
11 nM | C[C@@H](C(=O)N1CCOCC1)N1CC[C@H](N(Cc2ccncc2)S(=O)(=O)c2ccc3cc(Cl)ccc3c2)C1=O [GTC000029A]
266 nM | C[C@@H](C(=O)N1CCOCC1)N1CC[C@H](N(c2ccccc2)S(=O)(=O)c2ccc3cc(Cl)ccc3c2)C1=O [GTC000033A]
170 nM | C[C@@H](C(=O)N1CCOCC1)N1CC[C@H](N(c2ccc(F)cc2)S(=O)(=O)c2ccc3cc(Cl)ccc3c2)C1=O [GTC000034A]
152 nM | C[C@@H](C(=O)N1CCOCC1)N1CC[C@H](N(c2ccsc2)S(=O)(=O)c2ccc3cc(Cl)ccc3c2)C1=O [GTC000036A]
77 nM | C[C@@H](C(=O)N1CCOCC1)N1CC[C@H](N(c2cccnc2)S(=O)(=O)c2ccc3cc(Cl)ccc3c2)C1=O [GTC000037A]
56.5 nM | CC(=O)NCCN([C@H]1CCN([C@@H](C)C(=O)N2CCOCC2)C1=O)S(=O)(=O)c1ccc2cc(Cl)ccc2c1 [GTC000041A]
24 nM | C[C@@H](C(=O)N1CCOCC1)N1CC[C@H](N(CCN(C)C)S(=O)(=O)c2ccc3cc(Cl)ccc3c2)C1=O [GTC000042A]
